Results on 17 molecules are retold here after patent US7739055B2, “Methods and systems for generating and evaluating peptides” (priority 2005, dated 2010).

The subject of assay [1] is Sterne strain of Bacillus anthracis.
The subject of assay [2] is Smith Diffuse strain of Staphylococcus aureus.
Where [3] appears, read: first concentration that prohibits growth by OD at 24 hours, Table 1.

≈ marks a conversion by molar mass, not a printed value. Read-outs that look alike come from different tables or passages of the source. Where a SMILES comes first, the peptide text is derived from it.

Regarding `CC[C@H](C)[C@H](NC(=O)[C@H](CCCCN)NC(=O)[C@H](CCCCN)NC(=O)[C@H](Cc1ccccc1)NC(=O)[C@H](CC(C)C)NC(=O)[C@H](CCCCN)NC(=O)[C@H](Cc1c[nH]c2ccccc12)NC(=O)[C@@H](N)CCCCN)C(=O)NCC(=O)N[C@@H](C)C(=O)N[C@H](C(=O)N[C@@H](CC(C)C)C(=O)N[C@@H](CCCCN)C(=O)N[C@H](C(=O)N[C@@H](CC(C)C)C(N)=O)C(C)C)C(C)C` [Cec Mel Hyb, KWKLFKKIGAVLKVL-NH2] (H-KWKLFKKIGAVLKVL-NH2), in the assay with B. cereus (24 h), the “MIC B. cereus” value came to 8 µg/mL (≈ 4.52 µM). The “MIC B. anthracis” value in assay [1] turned out to be 16 µg/mL (≈ 9.04 µM). The “MIC S. aureus” value in assay [2] (Smith Diffuse strain of) is 4 µg/mL (≈ 2.26 µM).

`CC(C)C[C@H](NC(=O)CNC(=O)[C@H](Cc1ccccc1)NC(=O)[C@H](CC(C)C)NC(=O)[C@@H](N)Cc1ccccc1)C(=O)N[C@@H](C)C(=O)N[C@@H](CO)C(=O)N[C@@H](CCCCN)C(=O)N[C@H](C(=O)N[C@@H](Cc1ccccc1)C(=O)N1CCC[C@H]1C(=O)N[C@@H](C)C(=O)N[C@H](C(=O)N[C@@H](Cc1ccc(O)cc1)C(=O)N[C@@H](CS)C(=O)N[C@@H](CCCCN)C(=O)N[C@H](C(=O)N[C@H](C(=O)N[C@@H](CCCNC(=N)N)C(=O)N[C@@H](CCCCN)C(=O)O)[C@@H](C)O)C(C)C)C(C)C)C(C)C` [Peptide 5] (H-FLFGLASKVFPAVYCKVTRK-OH; N-terminus and C-terminus assumed): in the assay on B. cereus (24 h), the “MIC B. cereus” value came out at 256 µg/mL (≈ 113 µM). In addition, in assay [1], the “MIC B. anthracis” value was found to be 128 µg/mL (≈ 56.3 µM). For the same molecule, the “MIC E. coli” value in the assay with Escherichia coli (24 h) came to 64 µg/mL (≈ 28.1 µM). The “MIC S. aureus” value in assay [2] (Smith Diffuse strain of) was 256 µg/mL (≈ 113 µM).

As for `CC[C@H](C)[C@H](NC(=O)[C@@H](NC(=O)[C@H](C)NC(=O)[C@@H]1CCCN1C(=O)[C@H](Cc1ccccc1)NC(=O)[C@@H](NC(=O)[C@H](CCCCN)NC(=O)[C@H](CO)NC(=O)[C@H](C)NC(=O)[C@@H](NC(=O)[C@H](CCCNC(=N)N)NC(=O)[C@H](Cc1ccccc1)NC(=O)[C@H](CC(C)C)NC(=O)[C@H](C)NC(=O)CNC(=O)[C@@H](N)CC(C)C)C(C)C)C(C)C)C(C)C)C(=O)N[C@@H](CO)C(=O)N[C@@H](CCSC)C(=O)N[C@H](C(=O)N[C@@H](CCCCN)C(=O)O)C(C)C` [Peptide 22] (H-LGALFRVASKVFPAVISMVK-OH; N-terminus and C-terminus assumed), the “MIC B. cereus” value with B. cereus (24 h) was 64 µg/mL (≈ 30 µM). In assay [1], the “MIC B. anthracis” value is 64 µg/mL (≈ 30 µM). In addition, in the assay on Escherichia coli (24 h), the “MIC E. coli” value came out at 256 µg/mL (≈ 120 µM). In addition, the “MIC S. aureus” value in assay [2] (Smith Diffuse strain of) stood at 64 µg/mL (≈ 30 µM).

As for `CC[C@H](C)[C@H](NC(=O)[C@H](CC(C)C)NC(=O)[C@H](C)NC(=O)[C@@H]1CCCN1C(=O)[C@H](C)NC(=O)[C@@H](NC(=O)[C@H](CCCCN)NC(=O)[C@@H](N)CCCNC(=N)N)C(C)C)C(=O)N[C@@H](CCCCN)C(=O)N[C@@H](CO)C(=O)N[C@@H](Cc1ccccc1)C(=O)N[C@H](C(=O)N[C@@H](Cc1ccccc1)C(=O)N[C@@H](CC(C)C)C(=O)N[C@@H](Cc1ccccc1)C(=O)N[C@@H](CCCCN)C(=O)N[C@@H](Cc1ccccc1)C(=O)N[C@@H](CCCCN)C(=O)N[C@@H](CCCCN)C(=O)NCC(=O)O)C(C)C` [Shuffled 51] (H-RKVAPALIKSFVFLFKFKKG-OH; N-terminus and C-terminus assumed), the “MIC B. anthracis” value in assay [1] was determined as 256 µg/mL (≈ 110 µM). Further, the “MIC E. coli” value in the assay with Escherichia coli is on record as “+ (key: +: MIC greater than 256 ug/mL; ++: MIC greater than 128 ug/mL, not sufficiently soluble to test as 256 ug/mL)”. Also, the “MIC S. aureus” value in assay [2] (Smith Diffuse strain of) was determined as 128 µg/mL (≈ 55.1 µM).

As for `CC(C)C[C@H](NC(=O)[C@H](CC(C)C)NC(=O)[C@H](CO)NC(=O)[C@H](CCCCN)NC(=O)[C@H](CC(C)C)NC(=O)[C@@H]1CCCN1C(=O)[C@H](C)NC(=O)[C@H](Cc1ccccc1)NC(=O)[C@@H]1CCCN1C(=O)[C@H](CC(C)C)NC(=O)[C@@H](NC(=O)[C@H](CCCCN)NC(=O)[C@H](CCCCN)NC(=O)[C@@H](NC(=O)[C@H](CO)NC(=O)[C@@H](N)C(C)C)C(C)C)C(C)C)C(=O)N[C@@H](CO)C(=O)N[C@@H](Cc1ccccc1)C(=O)N[C@@H](C)C(=O)N[C@@H](Cc1ccccc1)C(=O)O` [Shuffled 63] (H-VSVKKVLPFAPLKSLLSFAF-OH; N-terminus and C-terminus assumed), in the assay on B. cereus (24 h), the “MIC B. cereus” value amounted to 256 µg/mL (≈ 117 µM). In addition, in the assay with Escherichia coli (24 h), the “MIC E. coli” value came out at 256 µg/mL (≈ 117 µM). Also, the “MIC S. aureus” value in assay [2] (Smith Diffuse strain, Table 1) was “+ (MIC greater than 256 ug/mL)”.

For SVKVAKSVIPSAVFAGGKVF [Shuffled 84], in the assay on B. cereus (setting [3]), the “MIC B. cereus” value is reported as “+ (MIC greater than 256 ug/mL)”. Besides, in the assay with Escherichia coli (setting [3]), the “MIC E. coli” value is “+ (MIC greater than 256 ug/mL)”.

On to SVVFGVASKVVPSVIGKVKT [Peptide 69], for which, in the assay on B. cereus (setting [3]), the “MIC B. cereus” value was “+ (MIC greater than 256 ug/mL)”. Also, in the assay on Escherichia coli (setting [3]), the “MIC E. coli” value was “+ (MIC greater than 256 ug/mL)”.

Take TAKVVVFVSFSYVVPKKRAC [Shuffled 2]: the “MIC B. cereus” value with B. cereus (setting [3]) was “+ (MIC greater than 256 ug/mL)”. In addition, the “MIC E. coli” value against Escherichia coli (setting [3]) was “+ (MIC greater than 256 ug/mL)”.

As to TLVGVVAKLVATKIGSSPRA [Shuffled 56], in the assay on B. cereus (setting [3]), the “MIC B. cereus” value is given as “+ (MIC greater than 256 ug/mL)”. Further, in the assay on Escherichia coli (setting [3]), the “MIC E. coli” value was “+ (MIC greater than 256 ug/mL)”.

Take VDKGSYLPRPTPPRPIYNRN [Pyrrhocoricin]: in the assay on B. cereus, the “MIC B. cereus” value is given as “++ (key: +: MIC greater than 256 ug/mL; ++: MIC greater than 128 ug/mL, not sufficiently soluble to test as 256 ug/mL)”. Further, the “MIC E. coli” value in the assay with Escherichia coli (setting [3]) is “++ (MIC greater than 128 ug/mL, not sufficiently soluble to test as 256 ug/mL)”.

As to VFSVKGGKPSVVIKVVVAST [Shuffled 69], the “MIC B. cereus” value against B. cereus (setting [3]) is “+ (MIC greater than 256 ug/mL)”. Further, in the assay on Escherichia coli (setting [3]), the “MIC E. coli” value is listed as “+ (MIC greater than 256 ug/mL)”.

Turning to VIAFAKTKEAKAKLKGQAKG [Shuffled 77], the “MIC B. cereus” value in the assay on B. cereus (setting [3]) is on record as “+ (MIC greater than 256 ug/mL)”. The “MIC E. coli” value against Escherichia coli (setting [3]) is listed as “+ (MIC greater than 256 ug/mL)”.

VKDLAKFIAKTVAKQGGCYL [Peptide 33]: the “MIC B. cereus” value against B. cereus (setting [3]) is given as “++ (MIC greater than 128 ug/mL, not sufficiently soluble to test as 256 ug/mL)”. Moreover, the “MIC E. coli” value in the assay on Escherichia coli (setting [3]) is reported as “++ (MIC greater than 128 ug/mL, not sufficiently soluble to test as 256 ug/mL)”.

Turning to VKRAGKGVAVVPSPLFKIVV [Shuffled 45], the “MIC B. cereus” value against B. cereus (setting [3]) is listed as “+ (MIC greater than 256 ug/mL)”. Besides, the “MIC E. coli” value against Escherichia coli (setting [3]) was “+ (MIC greater than 256 ug/mL)”.

Regarding VKTKCSVPAVVYILVKTFKS [Shuffled 88], the “MIC B. cereus” value against B. cereus (setting [3]) was “+ (MIC greater than 256 ug/mL)”. In the assay with Escherichia coli (setting [3]), the “MIC E. coli” value is on record as “+ (MIC greater than 256 ug/mL)”.

Turning to VVAKKFFVLVKGLAPVLSPS [Shuffled 42], in the assay on B. cereus (setting [3]), the “MIC B. cereus” value is recorded as “+ (MIC greater than 256 ug/mL)”. Moreover, the “MIC E. coli” value with Escherichia coli (setting [3]) is listed as “+ (MIC greater than 256 ug/mL)”.

For VVGRVASKVVPSLIGLFTTK [Peptide 65], the “MIC B. cereus” value against B. cereus (setting [3]) is “+ (MIC greater than 256 ug/mL)”. Also, the “MIC E. coli” value against Escherichia coli (setting [3]) is “+ (MIC greater than 256 ug/mL)”.
